Where two headings read alike, the source gives them in different places.
Legend:
[1] = tested on: MDA-MB-231 (human breast carcinoma cell line, CA IX negative); test: MTT cytotoxicity assay, MDA-MB-231 under anoxia or normoxia; type: cell-based; conditions: for IC50: Homo sapiens; for MDA-MB-231 Value = IC50(normoxia)/IC50(anoxia): MDA-MB-231, activity promotion under anoxia, >100 set as 100
Experimental: (§1) We focused our attention on the cytotoxicity of the four series of newly-synthesized compounds (10a–e, 11a–e, 12a–e, and 13a–e) under normoxic or anoxic conditions.
(§2) The data was calculated by the Logit method and presented as IC50 values in Table 1.
(§3) All of the newly-synthesized compounds were screened for in vitro cytotoxicity by MTT assay. The exponentially-growing MRC-5, HCT-116, MDA-MB-231, and HT-29 cells were allowed to grow until 80% confluency, the culture medium was discarded, digested with trypsin, separated centrifugally, then fresh culture medium was added and blown gently into single-cell suspension. Then, the cell suspension was seeded into each well of 96-well microculture plates at a concentration of 1.5 × 10^3–3 × 10^3 cells/well.
(§4) The cells were incubated with 50 μL of 2 mg/mL MTT solution for 4 h in a humidified incubator. The supernatant was discarded, and the media were then replaced with 200 μL of dimethyl sulfoxide to dissolve the purple colored formazan crystals formed in the wells, and their absorbances were measured at 492 nm with a microplate reader (Synergy-HT, BioTek Instruments, Winooski, VT, USA); 200 μL DMSO was set as the blank control.
(§5) The anoxia condition was achieved by placing cells in a sealed hypoxia incubator chamber (Catalog Number 27310, Stemcell Technologies, Inc., Vancouver, BC, Canada) filled with 5% CO2 and 95% N2.

[2] = tested on: HT-29 (human colon carcinoma cell line, overexpresses high amounts of CA IX); test: MTT cytotoxicity assay, HT-29 under anoxia or normoxia; type: cell-based; conditions: for HT-29 Value = IC50(normoxia)/IC50(anoxia): HT-29, activity promotion under anoxia; for IC50: Homo sapiens
Experimental: as §1, §2, §3, §4, §5

[3] = tested on: MRC-5 (human fetal lung fibroblast cells, normal lung cell); test: MTT cytotoxicity assay, MRC-5 normal cells; type: cell-based; conditions: MRC5, MRC-5, normoxia, 96 h MTT
Experimental: as §1, §2, §3, §4

[4] = tested on: HCT-116 (human colorectal cancer cell line); test: MTT cytotoxicity assay, HCT-116 under anoxia or normoxia; type: cell-based; conditions: for HCT-116 Value = IC50(normoxia)/IC50(anoxia): HCT-116, activity promotion under anoxia, >100 set as 100; for IC50: Homo sapiens
Experimental: as §1, §2, §3, §4, §5

[5] = MDA-MB-231, anoxia 24 h then normoxia 72 h, MTT, read-out: IC50 MDA-MB-231 Anoxia
[6] = MDA-MB-231, normoxia, 96 h MTT, read-out: IC50 MDA-MB-231 Normoxia
[7] = HT-29, anoxia 24 h then normoxia 72 h, MTT, read-out: IC50 HT-29 Anoxia
[8] = HT-29, normoxia, 96 h MTT, read-out: IC50 HT-29 Normoxia
[9] = HCT-116, anoxia 24 h then normoxia 72 h, MTT, read-out: IC50 HCT-116 Anoxia
[10] = HCT-116, normoxia, 96 h MTT, read-out: IC50 HCT-116 Normoxia

Cc1cc(=O)oc2cc(OCCn3cc(CO[C@H]4O[C@@H]5O[C@@]6(C)CC[C@H]7[C@H](C)CC[C@@H]([C@H]4C)[C@@]57OO6)nn3)ccc12 [10a, 7-(2-(4-(10β-Dihydroartemisininoxy)methyl)-1H-1,2,3-triazol-1-yl)ethoxy-4-methyl-2H-chromen-2-one]
IC50 [1, 5]: 36.7 µM | IC50 [1, 6]: 52 µM | MDA-MB-231 Value = IC50(normoxia)/IC50(anoxia) [1]: 1.42 | HT-29 Value = IC50(normoxia)/IC50(anoxia) [2]: 8.35 | IC50 [2, 7]: 1.47 µM | IC50 [2, 8]: 12.3 µM | IC50 [3]: 28 µM | HCT-116 Value = IC50(normoxia)/IC50(anoxia) [4]: 0.86 | IC50 [4, 9]: 11.9 µM | IC50 [4, 10]: 10.3 µM

C[C@H]1[C@@H](OCc2cn(CCOc3ccc4c(C(F)(F)F)cc(=O)oc4c3)nn2)O[C@@H]2O[C@@]3(C)CC[C@H]4[C@H](C)CC[C@@H]1[C@@]24OO3 [10b, 7-(2-(4-(10β-Dihydroartemisininoxy)methyl)-1H-1,2,3-triazol-1-yl)ethoxy-4-trifluoromethyl-2H-chromen-2-one]
IC50 [1, 5]: 24.7 µM | IC50 [1, 6]: 28 µM | MDA-MB-231 Value = IC50(normoxia)/IC50(anoxia) [1]: 1.13 | HT-29 Value = IC50(normoxia)/IC50(anoxia) [2]: 4.99 | IC50 [2, 7]: 2.18 µM | IC50 [2, 8]: 10.9 µM | IC50 [3]: 33.6 µM | HCT-116 Value = IC50(normoxia)/IC50(anoxia) [4]: 0.78 | IC50 [4, 9]: 8.31 µM | IC50 [4, 10]: 6.46 µM

Cc1c(C)c2ccc(OCCn3cc(CO[C@H]4O[C@@H]5O[C@@]6(C)CC[C@H]7[C@H](C)CC[C@@H]([C@H]4C)[C@@]57OO6)nn3)cc2oc1=O [10c, 7-(2-(4-(10β-Dihydroartemisininoxy)methyl)-1H-1,2,3-triazol-1-yl)ethoxy-3,4-dimethyl-2H-chromen-2-one]
IC50 [1, 5]: 33.2 µM | IC50 [1, 6]: 32.3 µM | MDA-MB-231 Value = IC50(normoxia)/IC50(anoxia) [1]: 0.97 | HT-29 Value = IC50(normoxia)/IC50(anoxia) [2]: 11.50 | IC50 [2, 7]: 1.82 µM | IC50 [2, 8]: 21 µM | IC50 [3]: 22.3 µM | HCT-116 Value = IC50(normoxia)/IC50(anoxia) [4]: 0.95 | IC50 [4, 9]: 6.89 µM | IC50 [4, 10]: 6.51 µM

Cc1c(Cl)c(=O)oc2cc(OCCn3cc(CO[C@H]4O[C@@H]5O[C@@]6(C)CC[C@H]7[C@H](C)CC[C@@H]([C@H]4C)[C@@]57OO6)nn3)ccc12 [10d, 3-Chloro-7-(2-(4-(10β-dihydroartemisininoxy)methyl)-1H-1,2,3-triazol-1-yl)ethoxy-4-methyl-2H-chromen-2-one]
IC50 [1, 5]: 29.2 µM | IC50 [1, 6]: 61.4 µM | MDA-MB-231 Value = IC50(normoxia)/IC50(anoxia) [1]: 2.10 | IC50 [2, 7]: 0.05 µM | IC50 [2, 8]: 17.7 µM | IC50 [3]: 50.7 µM | HCT-116 Value = IC50(normoxia)/IC50(anoxia) [4]: 0.79 | IC50 [4, 9]: 5.3 µM | IC50 [4, 10]: 4.18 µM

CCOC(=O)c1cc2ccc(OCCn3cc(CO[C@H]4O[C@@H]5O[C@@]6(C)CC[C@H]7[C@H](C)CC[C@@H]([C@H]4C)[C@@]57OO6)nn3)cc2oc1=O [10e, Ethyl 2-oxo-7-(2-(4-(10β-dihydroartemisininoxy)methyl)-1H-1,2,3-triazol-1-yl)ethoxy-2H-chromene-3-carboxylate]
IC50 [1, 5]: 91.2 µM | IC50 [1, 6]: > 100 µM | HT-29 Value = IC50(normoxia)/IC50(anoxia) [2]: 3.66 | IC50 [2, 7]: 8.69 µM | IC50 [2, 8]: 31.8 µM | IC50 [3]: 52.5 µM | HCT-116 Value = IC50(normoxia)/IC50(anoxia) [4]: 1.79 | IC50 [4, 9]: 28.8 µM | IC50 [4, 10]: 51.5 µM

Cc1cc(=O)oc2cc(OCCCn3cc(CO[C@H]4O[C@@H]5O[C@@]6(C)CC[C@H]7[C@H](C)CC[C@@H]([C@H]4C)[C@@]57OO6)nn3)ccc12 [11a, 7-(3-(4-(10β-Dihydroartemisininoxy)methyl)-1H-1,2,3-triazol-1-yl)propoxy-4-methyl-2H-chromen-2-one]
IC50 [1, 5]: 17.8 µM | IC50 [1, 6]: 51.2 µM | MDA-MB-231 Value = IC50(normoxia)/IC50(anoxia) [1]: 2.87 | HT-29 Value = IC50(normoxia)/IC50(anoxia) [2]: 7.17 | IC50 [2, 7]: 1.22 µM | IC50 [2, 8]: 8.78 µM | IC50 [3]: 15.5 µM | HCT-116 Value = IC50(normoxia)/IC50(anoxia) [4]: 1.36 | IC50 [4, 9]: 6.02 µM | IC50 [4, 10]: 8.21 µM

C[C@H]1[C@@H](OCc2cn(CCCOc3ccc4c(C(F)(F)F)cc(=O)oc4c3)nn2)O[C@@H]2O[C@@]3(C)CC[C@H]4[C@H](C)CC[C@@H]1[C@@]24OO3 [11b, 7-(3-(4-(10β-Dihydroartemisininoxy)methyl)-1H-1,2,3-triazol-1-yl)propoxy-4-trifluoromethyl-2H-chromen-2-one]
IC50 [1, 5]: 36.9 µM | IC50 [1, 6]: 72.6 µM | MDA-MB-231 Value = IC50(normoxia)/IC50(anoxia) [1]: 1.97 | HT-29 Value = IC50(normoxia)/IC50(anoxia) [2]: 1.63 | IC50 [2, 7]: 5.06 µM | IC50 [2, 8]: 8.23 µM | IC50 [3]: 43.8 µM | HCT-116 Value = IC50(normoxia)/IC50(anoxia) [4]: 1.38 | IC50 [4, 9]: 9.33 µM | IC50 [4, 10]: 12.9 µM

Cc1c(C)c2ccc(OCCCn3cc(CO[C@H]4O[C@@H]5O[C@@]6(C)CC[C@H]7[C@H](C)CC[C@@H]([C@H]4C)[C@@]57OO6)nn3)cc2oc1=O [11c, 7-(3-(4-(10β-Dihydroartemisininoxy)methyl)-1H-1,2,3-triazol-1-yl)propoxy-3,4-dimethyl-2H-chromen-2-one]
IC50 [1, 5]: 39.8 µM | IC50 [1, 6]: 56 µM | MDA-MB-231 Value = IC50(normoxia)/IC50(anoxia) [1]: 1.41 | HT-29 Value = IC50(normoxia)/IC50(anoxia) [2]: 0.83 | IC50 [2, 7]: 23.2 µM | IC50 [2, 8]: 19.3 µM | IC50 [3]: 60.9 µM | HCT-116 Value = IC50(normoxia)/IC50(anoxia) [4]: 1.27 | IC50 [4, 9]: 16.6 µM | IC50 [4, 10]: 21 µM

Cc1c(Cl)c(=O)oc2cc(OCCCn3cc(CO[C@H]4O[C@@H]5O[C@@]6(C)CC[C@H]7[C@H](C)CC[C@@H]([C@H]4C)[C@@]57OO6)nn3)ccc12 [11d, 3-Chloro-7-(3-(4-(10β-dihydroartemisininoxy)methyl)-1H-1,2,3-triazol-1-yl)propoxy-4-methyl-2H-chromen-2-one]
IC50 [1, 5]: 22.5 µM | IC50 [1, 6]: 51.6 µM | MDA-MB-231 Value = IC50(normoxia)/IC50(anoxia) [1]: 2.29 | HT-29 Value = IC50(normoxia)/IC50(anoxia) [2]: 2.90 | IC50 [2, 7]: 1.34 µM | IC50 [2, 8]: 3.9 µM | IC50 [3]: > 100 µM | HCT-116 Value = IC50(normoxia)/IC50(anoxia) [4]: 1.28 | IC50 [4, 9]: 6 µM | IC50 [4, 10]: 7.68 µM

CCOC(=O)c1cc2ccc(OCCCn3cc(CO[C@H]4O[C@@H]5O[C@@]6(C)CC[C@H]7[C@H](C)CC[C@@H]([C@H]4C)[C@@]57OO6)nn3)cc2oc1=O [11e, Ethyl 2-oxo-7-(3-(4-(10β-dihydroartemisininoxy)methyl)-1H-1,2,3-triazol-1-yl)propoxy-2H-chromene-3-carboxylate]
IC50 [1, 5]: 50.7 µM | IC50 [1, 6]: 121 µM | MDA-MB-231 Value = IC50(normoxia)/IC50(anoxia) [1]: 2.38 | HT-29 Value = IC50(normoxia)/IC50(anoxia) [2]: 4.25 | IC50 [2, 7]: 12 µM | IC50 [2, 8]: 51.1 µM | IC50 [3]: 38.7 µM | HCT-116 Value = IC50(normoxia)/IC50(anoxia) [4]: 1.57 | IC50 [4, 9]: 28.1 µM | IC50 [4, 10]: 44.1 µM

Cc1cc(=O)oc2cc(OCc3cn(CCO[C@H]4O[C@@H]5O[C@@]6(C)CC[C@H]7[C@H](C)CC[C@@H]([C@H]4C)[C@@]57OO6)nn3)ccc12 [12a, 7-(1-(2-(10β-Dihydroartemisininoxy)ethyl)-1H-1,2,3-triazol-4-yl)methoxy-4-methyl-2H-chromen-2-one]
IC50 [1, 5]: 47.7 µM | IC50 [1, 6]: 125 µM | MDA-MB-231 Value = IC50(normoxia)/IC50(anoxia) [1]: 2.63 | melting point: 79 to 81 °C | HT-29 Value = IC50(normoxia)/IC50(anoxia) [2]: 3.11 | IC50 [2, 7]: 10.6 µM | IC50 [2, 8]: 33 µM | IC50 [3]: 37.4 µM | HCT-116 Value = IC50(normoxia)/IC50(anoxia) [4]: 1.50 | IC50 [4, 9]: 18.3 µM | IC50 [4, 10]: 27.4 µM

C[C@H]1[C@@H](OCCn2cc(COc3ccc4c(C(F)(F)F)cc(=O)oc4c3)nn2)O[C@@H]2O[C@@]3(C)CC[C@H]4[C@H](C)CC[C@@H]1[C@@]24OO3 [12b, 7-(1-(2-(10β-Dihydroartemisininoxy)ethyl)-1H-1,2,3-triazol-4-yl)methoxy-4-trifluoromethyl-2H-chromen-2-one]
IC50 [1, 5]: 14.7 µM | IC50 [1, 6]: 40.1 µM | MDA-MB-231 Value = IC50(normoxia)/IC50(anoxia) [1]: 2.73 | melting point: 77 to 79 °C | HT-29 Value = IC50(normoxia)/IC50(anoxia) [2]: 4.62 | IC50 [2, 7]: 2.46 µM | IC50 [2, 8]: 11.3 µM | IC50 [3]: 18.5 µM | HCT-116 Value = IC50(normoxia)/IC50(anoxia) [4]: 0.35 | IC50 [4, 9]: 24.4 µM | IC50 [4, 10]: 8.47 µM

COc1cccc2c1C(=O)c1c(O)c3c(c(O)c1C2=O)C[C@@](O)(C(=O)CO)C[C@@H]3O[C@H]1C[C@H](N)[C@H](O)[C@H](C)O1 [DOX, doxorubicin, reference compound]
IC50 [1, 5]: 0.37 µM | IC50 [1, 6]: 0.27 µM | MDA-MB-231 Value = IC50(normoxia)/IC50(anoxia) [1]: 0.73 | HT-29 Value = IC50(normoxia)/IC50(anoxia) [2]: 1.74 | IC50 [2, 7]: 0.05 µM | IC50 [2, 8]: 0.09 µM | IC50 [3]: 0.34 µM | HCT-116 Value = IC50(normoxia)/IC50(anoxia) [4]: 0.39 | IC50 [4, 9]: 0.15 µM | IC50 [4, 10]: 0.06 µM
